25 compounds from PubChem BioAssay AID1053168 (Broad Institute, 2014) can be followed below.

The source made the active and inactive calls. The rule behind the calls is not given here. Where only a bound is given, the exact number is not on record here.

Experiment [1] relates to Vaccinia-infected cells, mCherry/Venus stage reporter fluorescence. Description: Stage specific vaccinia inhibitors, dry powder dose response, infected cell reporter fluorescence (AID 1053168).
Assay in experiment [2]: as above
To be noted: Vaccinia-infected cells, mCherry/Venus stage reporter fluorescence.

[3] abbreviates: measured here: mCherry reporter AC50.
Where [4] appears, read: measured here: Venus reporter AC50.

One may read the AC50 as the midpoint of the concentration-response curve, whichever way the signal moves.

Take `N#Cc1ccc(-c2ccc3c(c2)[C@H]2[C@H](CCN2C(=O)C2CCCCC2)[C@H](CO)N3)cc1`: the half-maximal activity concentration (AC50) in experiment [1] and in experiment [1] (setting [3]) was 20.8 µM each time.

Regarding `C[C@@H]1CN([C@H](C)CO)S(=O)(=O)c2ccc(C#C[C@@H](C)O)cc2O[C@@H]1CN(C)Cc1ccccc1`, the activity change, negative = inhibition in experiment [2] (at 21 µM (top of the series)) was -2.36% (inactive).

`C[C@H](CO)N1C[C@H](C)[C@@H](CN(C)Cc2ccc(-c3ccccc3)cc2)Oc2cc(C#C[C@@H](C)O)ccc2S1(=O)=O` displayed an AC50 in experiment [1] (setting [3]) of more than 42 µM. For the same compound, the activity change, negative = inhibition in experiment [2] (at 21 µM (top of the series)) was -19.5% (inactive).

`C[C@H](O)C#Cc1ccc2c(c1)O[C@H](CN(C)Cc1ccc(-c3ccccc3)cc1)[C@H](C)CN([C@H](C)CO)S2(=O)=O`: the AC50 in experiment [1] was 17.1 µM; in experiment [1] (setting [4]) it was 20.3 µM; in experiment [1] (setting [3]), 17.1 µM.

For the compound `C[C@H](O)C#Cc1ccc2c(c1)O[C@H](CN(C)Cc1ccccc1)[C@H](C)CN([C@H](C)CO)S2(=O)=O`, the activity change, negative = inhibition in experiment [2] (at 21 µM (top of the series)) is -3.27% (inactive).

For `O=C(Nc1ccc2c(c1)[C@@H]1C[C@@H](CC(=O)N3CCCCC3)O[C@@H](CO)[C@@H]1O2)Nc1ccccc1F`, the activity change, negative = inhibition in experiment [2] (at 21 µM (top of the series)) is 3.1% (inactive).

Turning to `CN(C)C(=O)c1ccc(-c2cccc(-c3nc(C(=O)NC4CCCCC4)cc4c3[C@@H](CCO)N([S@](=O)C(C)(C)C)C4)c2)cc1`, in experiment [2] (at 21 µM (top of the series)), the activity change, negative = inhibition is -8.97% (inactive).

For the compound `C[C@H]1CCCCO[C@H](CN(C)S(=O)(=O)c2ccc(Cl)cc2)[C@@H](C)CN([C@@H](C)CO)C(=O)c2cc(NC(=O)Nc3ccc(F)cc3)ccc2O1`, the AC50 in experiment [1] (setting [4]) and in experiment [1] (setting [3]) was more than 42 µM in each case. In addition, the activity change, negative = inhibition in experiment [2] (at 21 µM (top of the series)) is -17.8% (inactive).

With `CCOC(=O)[C@@H]1[C@@H]2C=C[C@]3(O2)[C@H](C(=O)NCc2ccccc2)N(CCCCCCO)C(=O)[C@@H]13`, the AC50 in experiment [1] (setting [4]) and in experiment [1] (setting [3]) was more than 42 µM each time. Also, in experiment [2] (at 21 µM (top of the series)), the activity change, negative = inhibition is -18.7% (inactive).

Consider `CN(C)C(=O)c1ccc(-c2cccc(-c3nc(C(=O)NC4CCCC4)cc4c3[C@H](CCO)N([S@@](=O)C(C)(C)C)C4)c2)cc1`, for which, in experiment [2] (at 21 µM (top of the series)), the activity change, negative = inhibition was -8.2% (inactive).

Regarding `CN1c2ccc(C#Cc3cccnc3)cc2[C@@H]2[C@@H](CCN2C(=O)C2CCC2)[C@H]1CO`, the activity change, negative = inhibition in experiment [2] (at 21 µM (top of the series)) was -4.64% (inactive).

Consider `C[C@H](CO)N1C[C@H](C)[C@@H](CN(C)S(=O)(=O)c2ccc(Cl)cc2)Oc2c(NS(=O)(=O)c3cn(C)cn3)cccc2C1=O`, for which the activity change, negative = inhibition in experiment [2] (at 21 µM (top of the series)) is -2.63% (inactive).

For `COc1ccccc1-c1ccc2c(c1)[C@H]1[C@H](CCN1C(=O)C1CCCCC1)[C@@H](CO)N2`, the AC50 in experiment [1] and in experiment [1] (setting [3]) was 18.6 µM throughout.

Regarding `CN1c2ccc(C#Cc3cccnc3)cc2[C@@H]2[C@@H](CCN2C(=O)C2CCC2)[C@@H]1CO`, the activity change, negative = inhibition in experiment [2] (at 21 µM (top of the series)) is 10.1% (inactive).

On to `Cc1noc(C)c1S(=O)(=O)Nc1ccc2c(c1)C(=O)N([C@@H](C)CO)C[C@@H](C)[C@H](CN(C)S(=O)(=O)c1cccs1)O2`, for which, in experiment [2] (at 21 µM (top of the series)), the activity change, negative = inhibition was -3.33% (inactive).

Regarding `C[C@@H](O)C#Cc1ccc2c(c1)O[C@@H](CN(C)Cc1ccc(-c3ccccc3)cc1)[C@@H](C)CN([C@@H](C)CO)S2(=O)=O`, the half-maximal activity concentration (AC50) in experiment [1] and in experiment [1] (setting [3]) was 3.67 µM each time.

As to `CN1c2ccc(C#Cc3cccnc3)cc2[C@H]2[C@H](CCN2C(=O)C2CCCCC2)[C@@H]1CO`, the activity change, negative = inhibition in experiment [2] (at 21 µM (top of the series)) was 9.03% (inactive).

Consider `COc1ccccc1CN1CC[C@@H]2[C@H]1c1cc(C#Cc3ccccc3)ccc1N[C@@H]2CO`, for which the concentration at half-maximal activity (AC50) in experiment [1] and in experiment [1] (setting [3]) was 20.7 µM in each case.

Regarding `C[C@H](O)C#Cc1ccc2c(c1)O[C@@H](CN(C)Cc1ccc(-c3ccccc3)cc1)[C@H](C)CN([C@@H](C)CO)S2(=O)=O`, the values for the half-maximal activity concentration (AC50) in experiment [1], in experiment [1] (setting [4]) and in experiment [1] (setting [3]) were 21.8 µM, 20.5 µM and 21.8 µM, respectively.

With `C[C@@H](O)C#Cc1ccc2c(c1)O[C@@H](CN(C)Cc1cccnc1)[C@@H](C)CN([C@@H](C)CO)S2(=O)=O`, the activity change, negative = inhibition in experiment [2] (at 21 µM (top of the series)) is 6.15% (inactive).

As for `C[C@@H](O)C#Cc1ccc2c(c1)O[C@H](CN(C)Cc1ccc(-c3ccccc3)cc1)[C@@H](C)CN([C@@H](C)CO)S2(=O)=O`, the concentration at half-maximal activity (AC50) in experiment [1] is 18.9 µM; in experiment [1] (setting [4]) it was 20.8 µM; in experiment [1] (setting [3]), 18.9 µM.

Turning to `CO[C@H]1CN(C)C(=O)c2ccc(NC(=O)c3ccc(F)cc3)cc2OC[C@H](C)N(C(=O)c2ccc(F)cc2)C[C@@H]1C`, the AC50 in experiment [1] and in experiment [1] (setting [3]) was 15.6 µM throughout.

Regarding `CN1c2ccc(-c3ccc(C#N)cc3)cc2[C@H]2[C@H](CCN2C(=O)C2CCCCC2)[C@@H]1CO`, the concentration at half-maximal activity (AC50) was 18.9 µM in experiment [1], 20.5 µM in experiment [1] (setting [4]) and 18.9 µM in experiment [1] (setting [3]).

On to `O=C(Nc1ccc2c(c1)[C@@H]1C[C@@H](CC(=O)N3CCc4ccccc4C3)O[C@@H](CO)[C@@H]1O2)Nc1ccccc1F`, for which the activity change, negative = inhibition in experiment [2] (at 19.5 µM (top of the series)) was -50.6% (inactive).

Consider `C[C@H](O)C#Cc1ccc2c(c1)O[C@H](CN(C)Cc1ccc(-c3ccccc3)cc1)[C@@H](C)CN([C@@H](C)CO)S2(=O)=O`, for which the AC50 in experiment [1] was 16.4 µM; in experiment [1] (setting [4]), 15.9 µM; in experiment [1] (setting [3]), 16.4 µM.
